Data set [1] in a line: Solubility in methylethylketone (MEK) measured at 20° C. It is filed as physicochemical. The protocol:
The symmetric sensitizers SS-01 to SS-06 are given in Table 1 together with their solubility in methylethylketone (S (MEK)) measured at 20° C.

Data set [2] in a line: Solubility in 1-methoxy-2-propanol (MOP) at 80° C., Lasentec FBRM technology. It is filed as physicochemical. The note with it: solubility in 1-methoxy-2-propanol at 80° C.; from curve fitting of experimental data. The protocol:
(§1) In the present application the MetaStable Zone of solutions of a sensitizer and/or a mixture of sensitizers were measured with Lasentec® FBRM® technology, from Mettler Toledo. In this experimental set up, a Lasentec® Probe is used in an automated Labmax® 2 litre reactor, both from Mettler Toledo. In a typical investigation, the solution is cooled at a controlled rate (° C./min.) At a certain temperature, the probe detects nucleation and holds the solution at that temperature as crystallization proceeds. After completion of the crystallization, the solution is subjected to a controlled heating (° C./min) until the probe detects the temperature at which dissolution of the crystals is nearly completed. Again, the solution is kept at that temperature until all crystals are dissolved. Such cooling and heating cycli are performed for different concentrations of the solution. All actions, i.e. performing the cooling and heating cycli, dilution of the solution, storage and analysis of the data are performed automatically by the experimental set up used.
(§2) All investigations were performed on a sensitizer solution in 1-methoxy-2-propanol, since this typical coating solvent has a high boiling point (120° C.) and, as described above, will probably determine the crystallization behaviour at the end of the drying step of the photopolymerizable coating.
(§3) The obtained data for each investigated solution of a sensitizer or a mixture of sensitizers may be represented as in FIG. 1. In FIG. 1, curve S is the solubility curve and curve N the nucleation curve. These curves border three regions characterizing the solution as a function of concentration and temperature: the UnSaturated Zone (USZ), a stable zone wherein the solution is unsaturated (sensitizer is completely dissolved); an Unstable Zone (UZ), wherein crystallization occurs; and a MetaStable Zone (MSZ) wherein the solution is supersaturated but wherein no crystallization occurs.
(§4) The suspension was stirred at 350 rpm and heated until complete dissolution of all sensitizers. All following actions were automatically performed by the experimental set up used. The experimental set up constituted a Labmax® 2 liter automated lab reactor equipped with Lasentec® Probe and the Lasentec® D600 hardware, all distributed by Mettler Toledo. The Lasentec® FBRM® technology enables the detection of nucleation and dissolution temperatures of a solution. FBRM® stands for Focused Beam Reflectance Measurement. The Lasentec® probe measures the number and the average diameter of the particles in the suspension (the laser of the Lasentec® probe continuously scans, with a linear scan speed of 2 m/s, a region of the suspension; the laser light is reflected by the particles residing in the scanned region).
The 40 percent by weight solution was cooled at 0.2° C./minute. Upon detection of nucleation, i.e. when the Lasentec® FBRM® technology detects more than 800 particles with an average diameter of 1 to 20 μm, the so called ‘fines’ region, the mixture was kept at the attained temperature during 0.5 hour as crystallization proceeds. Upon completion of the crystallization, the mixture was heated at 0.2° C./minute. Upon detection of solubilization, i.e. when the Lasentec® FBRM® technology detects less than 30 particles with an average particle diameter of 20 to 50 μm, the so called ‘coarses’ region, the temperature was kept at the attained temperature during 0.5 hour until completion of the solubilization. […]

A short description of data set [3]: MetaStable Zone Width (MSZW) in 1-methoxy-2-propanol at 80° C., Lasentec FBRM technology. It is filed as physicochemical. As to conditions: cooling and heating rate 0.2° C./min, from curve fitting. The protocol:
as §1, §2, §3
The MetaStable Zone Width (MSZW), expressed in ° C., at a given temperature, is the width of the Metastable Zone (MSZ) starting at the curve S at that given temperature. Since the MSZW is dependent on the cooling and heating rates, these rates were identical for all solutions investigated, i.e. 0.2° C./min. If the cooling rate would be indefinitely slow, the nucleation curve would practically coincide with the solubility curve and no MetaStable Zone would be detected.
as §4
The 40 percent by weight solution was cooled at 0.2° C./minute. […]

The source of these data is US20100104980A1, “LITHOGRAPHIC PRINTING PLATE PRECURSOR” (Agfa Graphics NV, priority 2007, published 2010).

Structures are written as SMILES.

As a reminder, the melting point is the temperature, or range, at which the solid turns liquid.

For `CCCCC(CC)COc1c(OC)cc(/C=C/c2ccc(/C=C/c3cc(OC)c(OC(C)CC)c(OC)c3)cc2)cc1OC` (stereo not drawn) [AS-01], the melting point amounted to 81 °C. `CCC(C)Oc1c(OC)cc(/C=C/c2ccc(/C=C/c3cc(OC)c(OC(CC)CC)c(OC)c3)cc2)cc1OC` (stereo not drawn) [AS-02] came in with a melting point of 155 °C. `CCC(C)Oc1c(OC)cc(/C=C/c2ccc(/C=C/c3cc(OC)c(OC4CCCCC4)c(OC)c3)cc2)cc1OC` (stereo not drawn) [AS-03] displayed a melting point of 165 °C. `CCC(C)Oc1c(OC)cc(/C=C/c2ccc(/C=C/c3cc(OC)c(OC4CCCC4)c(OC)c3)cc2)cc1OC` (stereo not drawn) [AS-04]: the melting point turned out to be 153 °C.

`CCC(C)Oc1c(OC)cc(/C=C/c2ccc(/C=C/c3cc(OC)c(OCCO)c(OC)c3)cc2)cc1OC` (stereo not drawn) [AS-05] gave a melting point of 137 °C. Turning to `COc1cc(/C=C/c2ccc(/C=C/c3cc(OC)c(OC)c(OC)c3)cc2)cc(OC)c1OC` [SS-01], the “S (MEK)” value in data set [1] amounted to 0.89 wt %. The “S (MOP) 80° C.” value in data set [2] was found to be 4.66 wt. %. For the same compound, the “MSZW 80° C.” value in data set [3] worked out at 4.5 °C.

Turning to `CCCOc1c(OC)cc(/C=C/c2ccc(/C=C/c3cc(OC)c(OCCC)c(OC)c3)cc2)cc1OC` [SS-02], the “S (MEK)” value in data set [1] was found to be 4.75 wt %. In addition, the “S (MOP) 80° C.” value in data set [2] was determined as 10.78 wt. %. The “MSZW 80° C.” value in data set [3] was determined as 4.5 °C.

For `COc1cc(/C=C/c2ccc(/C=C/c3cc(OC)c(OC(C)C)c(OC)c3)cc2)cc(OC)c1OC(C)C` [SS-03], the “S (MEK)” value in data set [1] was found to be 0.45 wt %. The “S (MOP) 80° C.” value in data set [2] was 7.31 wt. %. Also, in data set [3], the “MSZW 80° C.” value was 1.7 °C. Consider `CCC(C)Oc1c(OC)cc(/C=C/c2ccc(/C=C/c3cc(OC)c(OC(C)CC)c(OC)c3)cc2)cc1OC` (stereo not drawn) [SS-04], for which the “S (MEK)” value in data set [1] amounted to 8.71 wt %. Also, in data set [2], the “S (MOP) 80° C.” value is recorded as 22.76 wt. %. For the same compound, the “MSZW 80° C.” value in data set [3] amounted to 1.6 °C. In the same order, the values of `CCC(CC)Oc1c(OC)cc(/C=C/c2ccc(/C=C/c3cc(OC)c(OC(CC)CC)c(OC)c3)cc2)cc1OC` [SS-05] are 9.64 wt %, 6.14 wt. % and 3.6 °C. `CCCCC(CC)COc1c(OC)cc(/C=C/c2ccc(/C=C/c3cc(OC)c(OCC(CC)CCCC)c(OC)c3)cc2)cc1OC` (stereo not drawn) [SS-06]: the “S (MEK)” value in data set [1] is listed as 23.21 wt %.
